Results: patent EP4745137A1 (Gluetacs Therapeutics (Shanghai) Co., Ltd., priority 2023, dated 2025)

Legend:
Assay type in all cases: cell-based
Conditions in all cases: 24 hours of compound treatment, 50 nM and 500 nM tested (concentration behind the class not stated)
CK1α = target: T1, CK1α (Homo sapiens, UniProt P48729+Q96SW2); experiment: Western-blot assay of substrate protein degradation in hPBMCs, CK1α
T1 construct: endogenous in cells; host or cells: hPBMCs (Milecell Biotechnologies)

GSPT1 = target: T2, GSPT1 (Homo sapiens, UniProt P15170+Q96SW2); experiment: Western-blot assay of substrate protein degradation in hPBMCs, GSPT1
T2 construct: endogenous in cells; host or cells: hPBMCs (Milecell Biotechnologies)
T2 sequence (P15170 whole entry): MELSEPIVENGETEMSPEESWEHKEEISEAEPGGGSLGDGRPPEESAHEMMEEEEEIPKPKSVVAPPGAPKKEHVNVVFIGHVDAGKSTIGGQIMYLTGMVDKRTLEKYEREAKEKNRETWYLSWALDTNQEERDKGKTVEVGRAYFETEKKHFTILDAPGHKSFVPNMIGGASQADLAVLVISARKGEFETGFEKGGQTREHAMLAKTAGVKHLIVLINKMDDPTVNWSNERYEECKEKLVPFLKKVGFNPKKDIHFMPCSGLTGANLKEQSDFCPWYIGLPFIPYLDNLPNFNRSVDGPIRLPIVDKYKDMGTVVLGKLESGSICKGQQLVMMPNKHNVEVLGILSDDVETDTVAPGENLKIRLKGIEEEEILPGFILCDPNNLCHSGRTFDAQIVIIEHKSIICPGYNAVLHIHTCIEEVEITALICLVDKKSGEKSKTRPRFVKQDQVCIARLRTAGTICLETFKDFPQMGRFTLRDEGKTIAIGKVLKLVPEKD
T2 sequence (Q96SW2 whole entry): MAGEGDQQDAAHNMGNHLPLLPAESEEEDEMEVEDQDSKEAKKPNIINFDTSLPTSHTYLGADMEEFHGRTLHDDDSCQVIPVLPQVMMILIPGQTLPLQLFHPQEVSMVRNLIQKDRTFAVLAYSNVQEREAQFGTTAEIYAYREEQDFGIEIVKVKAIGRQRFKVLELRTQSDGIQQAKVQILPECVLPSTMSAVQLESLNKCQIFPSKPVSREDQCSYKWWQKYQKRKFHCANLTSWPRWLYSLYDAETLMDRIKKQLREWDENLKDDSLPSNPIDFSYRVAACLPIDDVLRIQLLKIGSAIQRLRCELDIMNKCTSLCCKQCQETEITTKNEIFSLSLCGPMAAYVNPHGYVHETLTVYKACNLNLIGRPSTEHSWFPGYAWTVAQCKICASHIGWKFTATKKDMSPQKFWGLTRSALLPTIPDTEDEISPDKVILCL
T2 sequence (Q16531 whole entry partner): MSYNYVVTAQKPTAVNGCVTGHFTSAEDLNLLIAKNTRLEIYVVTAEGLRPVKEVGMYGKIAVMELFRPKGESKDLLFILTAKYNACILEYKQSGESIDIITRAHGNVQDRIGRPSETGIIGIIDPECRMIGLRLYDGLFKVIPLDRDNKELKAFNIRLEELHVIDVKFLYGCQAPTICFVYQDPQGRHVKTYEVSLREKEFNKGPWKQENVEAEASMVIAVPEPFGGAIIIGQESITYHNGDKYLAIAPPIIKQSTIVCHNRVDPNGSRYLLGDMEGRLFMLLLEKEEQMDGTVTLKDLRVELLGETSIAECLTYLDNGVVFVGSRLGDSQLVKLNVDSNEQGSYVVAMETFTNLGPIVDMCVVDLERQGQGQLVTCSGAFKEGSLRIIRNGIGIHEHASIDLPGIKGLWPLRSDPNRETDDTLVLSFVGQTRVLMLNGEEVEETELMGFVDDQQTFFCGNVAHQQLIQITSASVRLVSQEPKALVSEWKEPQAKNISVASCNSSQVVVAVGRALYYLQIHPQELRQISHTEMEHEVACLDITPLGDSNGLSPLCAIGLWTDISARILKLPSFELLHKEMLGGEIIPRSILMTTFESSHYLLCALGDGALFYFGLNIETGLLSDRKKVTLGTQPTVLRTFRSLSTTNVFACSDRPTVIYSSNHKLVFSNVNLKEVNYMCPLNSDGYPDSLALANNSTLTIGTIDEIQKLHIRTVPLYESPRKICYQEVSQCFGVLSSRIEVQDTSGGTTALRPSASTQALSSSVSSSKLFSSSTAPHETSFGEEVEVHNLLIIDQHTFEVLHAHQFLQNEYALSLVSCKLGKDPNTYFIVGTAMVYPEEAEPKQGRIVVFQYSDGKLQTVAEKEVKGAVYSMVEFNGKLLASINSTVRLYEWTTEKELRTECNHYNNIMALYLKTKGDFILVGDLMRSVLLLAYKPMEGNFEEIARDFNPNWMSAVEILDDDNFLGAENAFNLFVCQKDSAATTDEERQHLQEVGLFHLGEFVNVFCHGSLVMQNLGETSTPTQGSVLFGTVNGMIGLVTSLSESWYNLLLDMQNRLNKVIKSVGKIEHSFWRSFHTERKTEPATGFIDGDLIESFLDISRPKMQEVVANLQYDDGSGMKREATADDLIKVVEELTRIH

IKZF2 = target: T3, IKZF2 (Homo sapiens, UniProt Q96SW2+Q9UKS7); experiment: Western-blot assay of substrate protein degradation in hPBMCs, IKZF2
T3 construct: endogenous in cells; host or cells: hPBMCs (Milecell Biotechnologies)
T3 sequence (Q9UKS7 whole entry): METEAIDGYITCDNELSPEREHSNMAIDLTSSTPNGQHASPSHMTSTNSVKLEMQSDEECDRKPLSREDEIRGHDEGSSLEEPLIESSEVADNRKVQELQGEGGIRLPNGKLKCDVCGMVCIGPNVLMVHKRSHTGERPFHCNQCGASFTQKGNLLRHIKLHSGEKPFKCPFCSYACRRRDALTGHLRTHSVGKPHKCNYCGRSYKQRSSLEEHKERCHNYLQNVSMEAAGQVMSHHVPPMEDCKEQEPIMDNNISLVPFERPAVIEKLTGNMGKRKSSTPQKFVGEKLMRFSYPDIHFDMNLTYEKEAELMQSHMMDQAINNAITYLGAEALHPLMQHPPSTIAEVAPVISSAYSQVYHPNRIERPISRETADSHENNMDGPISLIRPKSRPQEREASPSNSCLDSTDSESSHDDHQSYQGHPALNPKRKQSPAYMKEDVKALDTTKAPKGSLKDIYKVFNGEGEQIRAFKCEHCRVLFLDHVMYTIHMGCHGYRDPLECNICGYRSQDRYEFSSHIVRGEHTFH
T3 sequence (Q96SW2 whole entry): as the sequence (Q96SW2 whole entry) above
T3 sequence (Q16531 whole entry partner): as the sequence (Q16531 whole entry partner) above

IKZF1 = target: T4, IKZF1 (Homo sapiens, UniProt Q13422+Q96SW2); experiment: Western-blot assay of substrate protein degradation in hPBMCs, IKZF1
T4 construct: endogenous in cells; host or cells: hPBMCs (Milecell Biotechnologies)
T4 sequence (Q13422 whole entry): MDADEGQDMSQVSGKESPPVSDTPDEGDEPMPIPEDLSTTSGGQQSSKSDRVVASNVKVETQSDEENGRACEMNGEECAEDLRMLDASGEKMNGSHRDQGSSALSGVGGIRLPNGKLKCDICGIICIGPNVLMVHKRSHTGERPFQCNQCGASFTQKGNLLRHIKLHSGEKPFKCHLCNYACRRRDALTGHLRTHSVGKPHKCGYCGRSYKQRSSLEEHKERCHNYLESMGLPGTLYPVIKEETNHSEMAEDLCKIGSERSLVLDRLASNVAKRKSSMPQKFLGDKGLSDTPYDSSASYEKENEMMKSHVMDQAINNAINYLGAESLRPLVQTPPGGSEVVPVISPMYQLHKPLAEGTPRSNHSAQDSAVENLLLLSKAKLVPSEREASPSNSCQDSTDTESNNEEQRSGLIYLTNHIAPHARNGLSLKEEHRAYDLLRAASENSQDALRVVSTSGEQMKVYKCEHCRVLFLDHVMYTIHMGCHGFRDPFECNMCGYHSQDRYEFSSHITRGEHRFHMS
T4 sequence (Q96SW2 whole entry): as the sequence (Q96SW2 whole entry) above
T4 sequence (Q16531 whole entry partner): as the sequence (Q16531 whole entry partner) above

IKZF3 = target: T5, IKZF3 (Homo sapiens, UniProt Q96SW2+Q9UKT9); experiment: Western-blot assay of substrate protein degradation in hPBMCs, IKZF3
T5 construct: endogenous in cells; host or cells: hPBMCs (Milecell Biotechnologies)
T5 sequence (Q9UKT9 whole entry): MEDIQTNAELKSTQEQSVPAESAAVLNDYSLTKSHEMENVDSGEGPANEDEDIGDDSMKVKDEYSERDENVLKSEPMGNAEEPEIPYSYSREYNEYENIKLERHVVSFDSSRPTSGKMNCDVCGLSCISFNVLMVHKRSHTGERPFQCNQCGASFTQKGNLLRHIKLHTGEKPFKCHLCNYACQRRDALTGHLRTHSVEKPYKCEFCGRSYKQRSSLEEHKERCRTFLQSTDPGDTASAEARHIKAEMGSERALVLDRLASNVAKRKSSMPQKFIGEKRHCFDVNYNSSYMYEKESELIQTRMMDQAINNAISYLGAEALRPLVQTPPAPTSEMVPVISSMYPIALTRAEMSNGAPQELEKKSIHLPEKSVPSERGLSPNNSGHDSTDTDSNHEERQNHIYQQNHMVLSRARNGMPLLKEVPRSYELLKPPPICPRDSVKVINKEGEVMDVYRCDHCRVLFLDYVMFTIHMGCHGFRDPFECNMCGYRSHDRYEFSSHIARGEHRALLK
T5 sequence (Q96SW2 whole entry): as the sequence (Q96SW2 whole entry) above
T5 sequence (Q16531 whole entry partner): as the sequence (Q16531 whole entry partner) above

WEE1 = target: T6, WEE1 (Homo sapiens, UniProt P30291+Q96SW2); experiment: Western-blot assay of substrate protein degradation in hPBMCs, WEE1
T6 construct: endogenous in cells; host or cells: hPBMCs (Milecell Biotechnologies)

T1 sequence (P48729 whole entry): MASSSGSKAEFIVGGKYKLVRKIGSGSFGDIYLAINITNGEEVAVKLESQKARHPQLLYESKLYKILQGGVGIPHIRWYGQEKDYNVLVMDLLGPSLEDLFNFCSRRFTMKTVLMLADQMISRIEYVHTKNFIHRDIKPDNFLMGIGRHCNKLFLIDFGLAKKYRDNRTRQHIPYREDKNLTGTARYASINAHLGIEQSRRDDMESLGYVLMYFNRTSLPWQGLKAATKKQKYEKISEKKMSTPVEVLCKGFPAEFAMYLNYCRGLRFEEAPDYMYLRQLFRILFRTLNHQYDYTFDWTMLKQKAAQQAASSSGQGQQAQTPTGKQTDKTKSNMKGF
T1 sequence (Q96SW2 whole entry): as the sequence (Q96SW2 whole entry) above
T1 sequence (Q16531 whole entry partner): as the sequence (Q16531 whole entry partner) above

SMILES | CK1a substrate protein remaining % (CK1α) | GSPT1 substrate protein remaining % (GSPT1) | IKZF2 substrate protein remaining % (IKZF2) | IKZF 1 substrate protein remaining % (IKZF1) | IKZF3 substrate protein remaining % (IKZF3) | Weel substrate protein remaining % (WEE1)
O=C1CCC(N2C(=O)c3ccc(CN4CCC(c5ccsc5)CC4)cc3C2=O)C(=O)N1 (stereo not drawn) [GT-06281, 2-(2,6-dioxopiperidin-3-yl)-5-((4-(thiophen-3-yl)piperidin-1-yl)methyl)isoindoline-1,3-dione] | B (80%< substrate protein remaining %≤ 100%) | A (0% ≤ substrate protein remaining % ≤ 80%) | B (80%< substrate protein remaining %≤ 100%) | B (80%< substrate protein remaining %≤ 100%) | B (80%< substrate protein remaining %≤ 100%) | B (80%< substrate protein remaining %≤ 100%)
Cc1cscc1C1CCN(Cc2ccc3c(c2)C(=O)N(C2CCC(=O)NC2=O)C3=O)CC1 (stereo not drawn) [GT-06282, 2-(2,6-dioxopiperidin-3-yl)-5-((4-(4-methylthiophen-3-yl)piperidin-1-yl)methyl)isoindoline-1,3-dione] | B (80%< substrate protein remaining %≤ 100%) | A (0% ≤ substrate protein remaining % ≤ 80%) | B (80%< substrate protein remaining %≤ 100%) | B (80%< substrate protein remaining %≤ 100%) | B (80%< substrate protein remaining %≤ 100%) | B (80%< substrate protein remaining %≤ 100%)
Cc1cc(C2CCN(Cc3ccc4c(c3)C(=O)N(C3CCC(=O)NC3=O)C4=O)CC2)cs1 (stereo not drawn) [GT-06283, 2-(2,6-dioxopiperidin-3-yl)-5-((4-(5-methylthiophen-3-yl)piperidin-1-yl)methyl)isoindoline-1,3-dione] | B (80%< substrate protein remaining %≤ 100%) | A (0% ≤ substrate protein remaining % ≤ 80%) | B (80%< substrate protein remaining %≤ 100%) | B (80%< substrate protein remaining %≤ 100%) | B (80%< substrate protein remaining %≤ 100%) | B (80%< substrate protein remaining %≤ 100%)
O=C1CCC(N2C(=O)c3ccc(CN4CCC(c5ccco5)CC4)cc3C2=O)C(=O)N1 (stereo not drawn) [GT-06284, 2-(2,6-dioxopiperidin-3-yl)-5-((4-(furan-2-yl)piperidin-1-yl)methyl)isoindoline-1,3-dione] | B (80%< substrate protein remaining %≤ 100%) | A (0% ≤ substrate protein remaining % ≤ 80%) | B (80%< substrate protein remaining %≤ 100%) | B (80%< substrate protein remaining %≤ 100%) | B (80%< substrate protein remaining %≤ 100%) | B (80%< substrate protein remaining %≤ 100%)
O=C1CCC(N2C(=O)c3ccc(CN4CCC(c5ccoc5)CC4)cc3C2=O)C(=O)N1 (stereo not drawn) [GT-06285, 2-(2,6-dioxopiperidin-3-yl)-5-((4-(furan-3-yl)piperidin-1-yl)methyl)isoindoline-1,3-dione] | B (80%< substrate protein remaining %≤ 100%) | A (0% ≤ substrate protein remaining % ≤ 80%) | B (80%< substrate protein remaining %≤ 100%) | B (80%< substrate protein remaining %≤ 100%) | B (80%< substrate protein remaining %≤ 100%) | B (80%< substrate protein remaining %≤ 100%)
O=C1CCC(N2C(=O)c3ccc(CN4CCN(c5ccccc5)CC4)cc3C2=O)C(=O)N1 (stereo not drawn) [GT-06286, 2-(2,6-dioxopiperidin-3-yl)-5-((4-phenylpiperazin-1-yl)methyl)isoindoline-1,3-dione] | B (80%< substrate protein remaining %≤ 100%) | A (0% ≤ substrate protein remaining % ≤ 80%) | B (80%< substrate protein remaining %≤ 100%) | B (80%< substrate protein remaining %≤ 100%) | B (80%< substrate protein remaining %≤ 100%) | B (80%< substrate protein remaining %≤ 100%)
COc1ccccc1N1CCN(Cc2ccc3c(c2)C(=O)N(C2CCC(=O)NC2=O)C3=O)CC1 (stereo not drawn) [GT-06287, 2-(2,6-dioxopiperidin-3-yl)-5-((4-(2-methoxyphenyl)piperazin-1-yl)methyl)isoindoline-1,3-dione] | B (80%< substrate protein remaining %≤ 100%) | A (0% ≤ substrate protein remaining % ≤ 80%) | B (80%< substrate protein remaining %≤ 100%) | B (80%< substrate protein remaining %≤ 100%) | B (80%< substrate protein remaining %≤ 100%) | B (80%< substrate protein remaining %≤ 100%)
COc1cccc(N2CCN(Cc3ccc4c(c3)C(=O)N(C3CCC(=O)NC3=O)C4=O)CC2)c1 (stereo not drawn) [GT-06288, 2-(2,6-dioxopiperidin-3-yl)-5-((4-(3-methoxyphenyl)piperazin-1-yl)methyl)isoindoline-1,3-dione] | B (80%< substrate protein remaining %≤ 100%) | A (0% ≤ substrate protein remaining % ≤ 80%) | B (80%< substrate protein remaining %≤ 100%) | B (80%< substrate protein remaining %≤ 100%) | B (80%< substrate protein remaining %≤ 100%) | B (80%< substrate protein remaining %≤ 100%)
O=C1CCC(N2C(=O)c3ccc(CN4CCN(c5cccc(Br)c5)CC4)cc3C2=O)C(=O)N1 (stereo not drawn) [GT-06289, 5-((4-(3-bromophenyl)piperazin-1-yl)methyl)-2-(2,6-dioxopiperidin-3-yl)isoindoline-1,3-dione] | B (80%< substrate protein remaining %≤ 100%) | A (0% ≤ substrate protein remaining % ≤ 80%) | B (80%< substrate protein remaining %≤ 100%) | B (80%< substrate protein remaining %≤ 100%) | B (80%< substrate protein remaining %≤ 100%) | B (80%< substrate protein remaining %≤ 100%)
O=C1CCC(N2C(=O)c3ccc(CN4CCN(c5ccc(C(F)(F)F)cc5)CC4)cc3C2=O)C(=O)N1 (stereo not drawn) [GT-06290, 2-(2,6-dioxopiperidin-3-yl)-5-((4-(4-(trifluoromethyl)phenyl)piperazin-1-yl)methyl)isoindoline-1,3-dione] | B (80%< substrate protein remaining %≤ 100%) | A (0% ≤ substrate protein remaining % ≤ 80%) | B (80%< substrate protein remaining %≤ 100%) | B (80%< substrate protein remaining %≤ 100%) | B (80%< substrate protein remaining %≤ 100%) | B (80%< substrate protein remaining %≤ 100%)
